EC50 data for 3 compounds are collected here from publication PMC10572855, “Phenotypic Test of Benzo[4,5]imidazo[1,2-c]pyrimidinone-Based Nucleoside and Non-Nucleoside Derivatives against DNA and RNA Viruses, Including Coronaviruses” (International Journal of Molecular Sciences, 2023).

The experiment relates to SARS-CoV-2 RG-2675 (South Africa). The experiment in a line: Cytopathic effect reduction, SARS-CoV-2 RG-2675 (South Africa) in Vero cells. Type of experiment: cell-based. To be noted: Severe acute respiratory syndrome coronavirus 2, Vero, read-out: Antiviral Activity (EC50) RG-2675 (South Africa).

For the compound `COc1ccc(C(OC[C@H]2O[C@@H](n3ccc4nc5cc(O)ccc5n4c3=O)C[C@@H]2O)(c2ccccc2)c2ccc(OC)cc2)cc1` [Compound 3a, 2-((2R,4S,5R)-5-((bis(4-methoxyphenyl)(phenyl)methoxy)methyl)-4-hydroxytetrahydrofuran-2-yl)-7-hydroxybenzo[4,5]imidazo[1,2-c]pyrimidin-1(2H)-one], the EC50 turned out to be 9.1 ± 0.62 µM. For `CC(C)C(=O)OC[C@H]1O[C@@H](n2ccc(NO)nc2=O)[C@H](O)[C@@H]1O` [Molnupiravir], the EC50 was determined as 5.18 ± 0.26 µM. Next, `CCC(CC)COC(=O)[C@H](C)N[P@](=O)(OC[C@H]1O[C@@](C#N)(c2ccc3c(N)ncnn23)[C@H](O)[C@@H]1O)Oc1ccccc1` [Remdesivir, reference compound]: 1.31 ± 0.68 µM.
